Reference: article PMC9300616, “Grape seed proanthocyanidin extract inhibits DNA and protein damage and labile iron, enzyme, and cancer cell activities” (Scientific Reports, 2022)
pIC50: −log10 of the molar value.

What was measured:
[1] = tested on: ferritin; test: Labile iron inhibition assay (superoxide-dependent iron release from ferritin); format: biochemical; details: for Labile Iron IC50: inhibition of iron release from ferritin, mean ± SD of three experiments
Description: The mixture was illuminated using a fluorescent lamp for 90 min at 25 °C. The labile iron content was measured as described by Ibrahim et al.[22].

[2] = ABTS free radical-scavenging assay; format: biochemical; details: for ABTS IC50: concentration that scavenges free radicals by 50%, mean ± SD of three experiments
Description: Determination was conducted based on the method reported by Platat et al.[62]. The results were expressed as the percentage of ABTS^· radical inhibition calculated using Eq. (1) as described above.

[3] = tested on: Bovine Serum Albumin (BSA); test: Protein oxidation induced by AAPH, SDS-PAGE; details: for Fragmentation of BSA reduced by: AAPH 30 min
Description: Alkylperoxyl radical-induced oxidation of Bovine Serum Albumin (BSA) was performed as described by Habib et al.[17]. In brief, BSA (0.5 mg mL^−1) was incubated with AAPH (20 mM) in the presence or absence of different extracts in a shaking water bath at 37 °C for 30 min. A protein sample without AAPH was used as control. After treatment, protein samples were mixed with loading buffer and heated at 100 °C for 5 min. An aliquot of each sample was loaded and separated using 10% SDS-PAGE under reducing conditions. The free stained gels were imaged using a ChemiDoc MV gel documentation system (Bio-Rad, Hercules, CA, USA). To determine the amount of protein damage, band intensity was determined using the Image Lab 4.1 software (version 6.1.0 build 7) (Bio-Rad, Hercules, CA, USA). The optical density of each band was determined and standardized for the control group.

[4] = molecular target: mushroom tyrosinase; test: Tyrosinase inhibition assay; format: biochemical; details: mean ± SD of three experiments
Description: Tyrosinase inhibitory activity was measured as described by Habib et al.[17]. […] After 10 min of incubation at 37 °C, 1 mL of mushroom tyrosinase (50 units/mL, dissolved in 0.2 M phosphate buffer, pH 6.8), was added to the mixture. The absorbance was recorded after 10 min at 475 nm. A 50% ethanol solution was used as a blank, and 1 mL of deionized water was used as the control. % Tyrosinase inhibitory activity was calculated according to Eq. (1) as described above.

[5] = molecular target: T1, Porcine α-amylase (Sus scrofa, UniProt P00690); test: Porcine α-amylase inhibition assay; format: biochemical; details: mean ± SD of three experiments
T1 sequence (P00690 16-511): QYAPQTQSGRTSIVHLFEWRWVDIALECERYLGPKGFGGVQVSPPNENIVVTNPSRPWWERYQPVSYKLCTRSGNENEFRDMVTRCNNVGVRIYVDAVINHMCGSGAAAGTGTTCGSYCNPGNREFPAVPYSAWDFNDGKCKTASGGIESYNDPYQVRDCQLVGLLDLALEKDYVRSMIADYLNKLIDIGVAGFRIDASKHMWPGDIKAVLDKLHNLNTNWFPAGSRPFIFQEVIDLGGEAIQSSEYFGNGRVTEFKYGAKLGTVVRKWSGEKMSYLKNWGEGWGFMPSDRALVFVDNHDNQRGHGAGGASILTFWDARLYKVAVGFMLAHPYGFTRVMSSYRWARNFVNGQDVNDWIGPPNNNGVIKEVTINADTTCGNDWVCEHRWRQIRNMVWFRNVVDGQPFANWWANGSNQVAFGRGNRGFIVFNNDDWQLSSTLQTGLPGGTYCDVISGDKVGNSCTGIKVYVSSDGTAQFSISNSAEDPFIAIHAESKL
Description: Inhibition of porcine α-amylase activity was described by Habib et al.[17]. […] For 10 min, the mixture was incubated at 25 °C, and then 50 µL 1% starch solution in 20 mM sodium phosphate buffer at pH 6.9 with 6 mM NaCl was added. The mixture was incubated at 25 °C, followed by addition of a color reagent (1 mL dinitrosalicylic acid). To stop the reaction, the mixture was kept for 10 min in a water bath at 100 °C and then cooled to 25 °C. 1 mL of deionized water was added, and the absorbance was read at 540 nm using a 96-well microplate reader. Inhibition of porcine α-amylase was estimated using Eq. (1) as described above.

[6] = tested on: pBR322 plasmid DNA; test: DNA damage by free radicals (H2O2 + UV), agarose gel; format: biochemical; details: for supercoiled (SC) form of pBR322 DNA: H2O2 + UV; for DNA damage inhibition IC50: pBR322 DNA + H2O2 + UV, mean ± SD of three experiments
Description: The assay was performed using the method described by Habib et al.[17]. Briefly, 6 μL of 30% H2O2 was added to an Eppendorf tube with a volume of 20 μL containing 6 μL of PBS buffer, 0.2 μg of pBR322 DNA in 2 μL of 50 mM PBS (pH 7.4), and 4 μL of samples. The reactions were initiated by UV irradiation and sustained for 5 min on the surface of a UV transilluminator TFM-26 (UVP, Upland, CA, USA), with an intensity of […] at 312 nm at room temperature. At the end of the reaction, the samples were run on 0.8% agarose. […] Vitamin C and Rutin were used as positive controls.

[7] = DPPH free radical-scavenging assay; format: biochemical; details: concentration that scavenges free radicals by 50%; mean ± SD of three experiments
Description: The estimation was based on the method reported by Habib et al.[61]. The results were expressed as the percentage inhibition of the DPPH^· radical. The percentage of inhibition of DPPH^· radical was calculated using the following equation:1 %ofDPPH^·inhibition=Abscontrol-Abssample/Abscontrol×100
where Abs control is the absorbance of DPPH^· solution without the tested sample.

O=C(O)c1cc(O)c(O)c(O)c1 [Gallic acid]
percentage inhibition of iron release from ferritin ([1]; at 10 μg): 50.68 ± 0.18% | percentage inhibition of iron release from ferritin ([1]; at 50 μg): 59.22 ± 0.81% | percentage inhibition of iron release from ferritin ([1]; at 100 μg): 68.55 ± 0.38% | Labile Iron IC50 [1]: 4.86 ± 0.23 µg/mL

C[C@@H]1O[C@@H](OC[C@H]2O[C@@H](Oc3c(-c4ccc(O)c(O)c4)oc4cc(O)cc(O)c4c3=O)[C@H](O)[C@@H](O)[C@@H]2O)[C@H](O)[C@H](O)[C@H]1O [Rutin]
ABTS scavenging ([2]; at 0.1 mg/mL): 48.10 ± 0.07% | ABTS scavenging ([2]; at 5 mg/mL): 90.13 ± 0.04% | ABTS IC50 [2]: 6.31 ± 1.00 µg/mL | percentage inhibition of iron release from ferritin ([1]; at 10 μg): 85.32 ± 0.56% | percentage inhibition of iron release from ferritin ([1]; at 50 μg): 90.30 ± 0.01% | percentage inhibition of iron release from ferritin ([1]; at 100 μg): 96.65 ± 0.01% | Labile Iron IC50 [1]: 0.08 ± 0.14 µg/mL | Fragmentation of BSA reduced by ([3]; at 0.1 mg/mL): 94.12 ± 0.20% | Fragmentation of BSA reduced by ([3]; at 5 mg/mL): 99.10 ± 0.24% | BSA damage inhibition IC50 ([3]; BSA + AAPH, mean ± SD of three experiments): 4.42 ± 0.24 µg/mL | Tyrosinase IC50 [4]: 72.08 ± 0.54 µg/mL | pIC50 [5]: 3.88 | supercoiled (SC) form of pBR322 DNA ([6]; at 0.1 mg/mL): 13.50 ± 0.52% | supercoiled (SC) form of pBR322 DNA ([6]; at 5 mg/mL): 66.50 ± 0.57% | DNA damage inhibition IC50 [6]: 2.45 ± 0.13 µg/mL

Cc1c(C)c2c(c(C)c1O)CCC(C)(C(=O)O)O2 (centres unmarked) [Trolox]
percentage inhibition of iron release from ferritin ([1]; at 10 μg): 39.33 ± 0.54% | percentage inhibition of iron release from ferritin ([1]; at 50 μg): 84.79 ± 3.00% | percentage inhibition of iron release from ferritin ([1]; at 100 μg): 87.87 ± 1.87% | Labile Iron IC50 [1]: 12.57 ± 0.64 µg/mL

O=C1O[C@H]([C@@H](O)CO)C(O)=C1O [VC, vitamin C]
ABTS scavenging ([2]; at 0.1 mg/mL): 88.29 ± 0.22% | ABTS scavenging ([2]; at 5 mg/mL): 92.69 ± 0.32% | ABTS IC50 [2]: 0.68 ± 0.12 µg/mL | DPPH IC50 [7]: 880 ± 0.52 µg/mL | Tyrosinase IC50 [4]: 42.74 ± 0.23 µg/mL | Porcine α-amylase IC50 [5]: 87.24 ± 0.71 µg/mL | supercoiled (SC) form of pBR322 DNA ([6]; at 0.1 mg/mL): 11.50 ± 0.63% | supercoiled (SC) form of pBR322 DNA ([6]; at 5 mg/mL): 19.10 ± 0.91% | DNA damage inhibition IC50 [6]: 42.03 ± 1.06 µg/mL
